The values that follow come from the NIST ThermoML archive (doi:10.1021/acs.jced.5b00393).

Numbers after ± are expanded uncertainties.

Data set [1] is described as follows: mn = molality of the nth substance listed, in mol/kg. The conditions noted are these: 298.15 K, 101 kPa, Liquid, Pycnometric method.
The nature of data set [2]: refractive index (Na D-line) (dimensionless); mn = molality of the nth substance listed, in mol/kg. The following applies: 298.15 K, 101 kPa, Liquid, Standard Abbe refractometry.

Consider `N[C@@H](CS)C(=O)O` [(R)-2-amino-3-mercaptopropanoic acid] + O, for which the mass density in data set [1] (m1 = 1.821) is recorded as 1074.1 ± 1.1 kg/m3. Further, the refractive index in data set [2] (m1 = 1.821) stood at 1.3439 ± 0.0004.

`NCCCC[C@H](N)C(=O)O` [L-lysine] + O: the mass density in data set [1] (m1 = 4.734) was 1242.1 ± 1.1 kg/m3. The refractive index in data set [2] (m1 = 4.734) is reported as 1.4155 ± 0.0004.
